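Protocol summary: plate cells (96-well), add compound at 5 concentrations, incubate 48 h, interpolate endpoints linearly. GI50 is the concentration that inhibits growth by half. The concentration for full growth arrest is given as TGI.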
Columns and labels:
Test in all cases: growth of human tumour cells (NCI), 48 h
[1] = tested on: DU-145 prostate
[2] = tested on: HL-60(TB) leukemia
[3] = tested on: MDA-MB-231 breast
[4] = tested on: MDA-MB-435
[5] = tested on: NCI-H460 lung
[6] = tested on: NCI-H522 lung
[7] = tested on: OVCAR-5 ovarian
[8] = tested on: SK-MEL-2 melanoma
[9] = tested on: SK-MEL-5 melanoma
[10] = tested on: UACC-62 melanoma

Row | Compound | GI50 [1] | TGI [1] | GI50 [2] | TGI [2] | GI50 [3] | TGI [3] | GI50 [4] | TGI [4] | GI50 [5] | TGI [5] | GI50 [6] | TGI [6] | GI50 [7] | TGI [7] | GI50 [8] | TGI [8] | GI50 [9] | TGI [9] | GI50 [10] | TGI [10]
1 | Nc1nc(Cl)c2ncn(Cc3ccc(C45CC6CC(CC(C6)C4)C5)c(O)c3)c2n1 | 3.14 µM | 11.8 µM | 1220 nM | 11.7 µM | 1850 nM | 11.4 µM | 5140 nM | 23.2 µM | 4.03 µM | 15.6 µM | 6010 nM | 23800 nM | 6.13 µM | 20.6 µM | 16 µM | 48.3 µM | 558 nM | 11 µM | 4070 nM | 18.5 µM
2 | CC[C@@]1(O)C(=O)OCc2c1cc1n(c2=O)Cc2c-1nc1cc3c(cc1c2CCl)OCO3 | < 0.01 µM | – | < 10 nM | – | 1380 nM | 20.7 µM | 59.2 nM | 2.24 µM | < 0.01 µM | < 0.0318 µM | < 10 nM | 1360 nM | 0.0593 µM | 2.12 µM | 0.206 µM | 1.22 µM | < 10 nM | 1.13 µM | < 10 nM | 0.205 µM
3 | N#Cc1ccc(O)c(C2=NCC(c3cccc(Oc4ccccc4)c3)O2)c1 (stereo not drawn) | 1.27 µM | > 100 µM | 852 nM | 9.29 µM | 1280 nM | 12 µM | 1630 nM | > 100 µM | 0.434 µM | 10.2 µM | 1170 nM | 12300 nM | 2.95 µM | > 100 µM | 2.41 µM | 24.4 µM | 549 nM | 2.3 µM | 1030 nM | 2.27 µM
4 | CCCn1cnc2c(SCc3ccccc3Cl)nc(N)nc21 | 15.5 µM | 45.6 µM | 5530 nM | 28.6 µM | 11800 nM | 29.3 µM | 13600 nM | 37 µM | 4.2 µM | 26.4 µM | 19400 nM | 71100 nM | 25.7 µM | 91.9 µM | 22.6 µM | 50.9 µM | 4220 nM | 19 µM | 8530 nM | 22.7 µM
5 | COc1cc(C2=C(c3ccccc3)COC2=O)cc(OC)c1OC | 4.68 µM | > 100 µM | 409 nM | 2.14 µM | 3200 nM | > 100 µM | 168 nM | 0.645 µM | 0.966 µM | 56.4 µM | 2480 nM | > 57400 nM | 4.84 µM | > 100 µM | 7.81 µM | > 100 µM | 1400 nM | 19.3 µM | 1630 nM | > 100 µM
6 | CC1(C)OC2[C@@H](CNC(=O)NC(=O)NC(=O)CI)O[C@@H](n3cnc4c(NC(=O)Nc5ccccc5)ncnc43)[C@H]2O1 (stereo partly drawn) | 14.5 µM | > 50 µM | 1610 nM | 4.13 µM | 9420 nM | 19.4 µM | 7570 nM | 14.8 µM | 27 µM | > 50 µM | 742 nM | 1500 nM | 8.74 µM | 18 µM | 10.5 µM | 21.5 µM | 8740 nM | 16.2 µM | 8440 nM | 17.1 µM
7 | C=CCCCCCCCCC(=O)[O][Sn]([CH2]CCC)([CH2]CCC)[CH2]CCC | 0.15 µM | 0.29 µM | 169 nM | 0.464 µM | 140 nM | 0.304 µM | 153 nM | 0.319 µM | 0.152 µM | 0.312 µM | 141 nM | 296 nM | 0.128 µM | 0.297 µM | 0.189 µM | 0.377 µM | 148 nM | 0.282 µM | 168 nM | 0.349 µM
8 | O=C(/C(Br)=C/c1ccccc1)c1ccccc1 | 1.77 µM | 3.95 µM | 2220 nM | 6.47 µM | 2440 nM | 5.12 µM | 1960 nM | 4.67 µM | 17.8 µM | 38 µM | 396 nM | 2230 nM | 3.21 µM | 9.22 µM | 3.17 µM | 7.38 µM | 4960 nM | 17.3 µM | 1940 nM | 3.81 µM

Source: PubChem BioAssay (NCI)
